Measurements: ChEMBL document CHEMBL3525988, “Delayed elimination of SN-38 in cancer patients with severe renal failure” (Drug Metab Dispos, 2011)

Columns and labels:
[1] = Terminal elimination rate constant in cancer patient with severe renal failure administered as infusion after 0.25 to 1.5 hrs by RP-HPLC analysis; format: ADME, organism-based; parameters: dosed compound name Irinotecan; details: human, in vivo, iv; read-out: k_elim (converted)
[2] = Terminal elimination rate constant in cancer patient normal renal function administered as infusion after 0.25 to 1.5 hrs by RP-HPLC analysis; format: ADME, organism-based; parameters: dosed compound name Irinotecan; details: human, in vivo, iv; read-out: k_elim (converted)

## CCc1c2c(nc3ccc(O[C@@H]4O[C@H](C(=O)O)[C@@H](O)[C@H](O)[C@H]4O)cc13)-c1cc3c(c(=O)n1C2)COC(=O)[C@]3(O)CC
[1]
  k el: 8.61e-06 s⁻¹
[2]
  k el: 1.7e-05 s⁻¹

## CCc1c2c(nc3ccc(O)cc13)-c1cc3c(c(=O)n1C2)COC(=O)[C@]3(O)CC [7-ETHYL-10-HYDROXYCAMPTOTHECIN]
[1]
  k el: 2.34e-06 s⁻¹
[2]
  k el: 2.26e-05 s⁻¹

## CCc1c2c(nc3ccc(OC(=O)N4CCC(N5CCCCC5)CC4)cc13)-c1cc3c(c(=O)n1C2)COC(=O)[C@]3(O)CC [IRINOTECAN]
[1]
  k el: 2.81e-05 s⁻¹
[2]
  k el: 3.33e-05 s⁻¹
